# Data published in ChEMBL document CHEMBL1149215, “Chemoenzymatic synthesis and binding affinity of novel (R)- and (S)-3-aminomethyl-1-tetralones, potential atypical antipsychotics” (Bioorg Med Chem Lett, 2004).
# How the values were obtained:
# [1] = target: T1, 5-hydroxytryptamine receptor 2C (Homo sapiens, UniProt P28335)
# T1 sequence (P28335 whole entry): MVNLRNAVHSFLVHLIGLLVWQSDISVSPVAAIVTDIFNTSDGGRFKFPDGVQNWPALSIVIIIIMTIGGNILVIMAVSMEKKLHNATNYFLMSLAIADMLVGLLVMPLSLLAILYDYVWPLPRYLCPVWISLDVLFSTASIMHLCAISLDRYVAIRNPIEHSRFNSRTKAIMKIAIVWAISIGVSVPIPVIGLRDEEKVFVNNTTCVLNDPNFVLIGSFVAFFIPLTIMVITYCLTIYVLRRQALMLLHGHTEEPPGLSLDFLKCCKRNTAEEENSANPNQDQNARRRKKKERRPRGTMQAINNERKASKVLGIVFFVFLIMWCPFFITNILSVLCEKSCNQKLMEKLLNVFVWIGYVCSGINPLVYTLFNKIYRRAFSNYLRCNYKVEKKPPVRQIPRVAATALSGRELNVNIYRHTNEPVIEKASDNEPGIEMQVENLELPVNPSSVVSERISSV
# Description: Binding affinity towards serotonin 5-hydroxytryptamine 2C receptor
# [2] = target: 5-hydroxytryptamine receptor 2A (Homo sapiens, UniProt P28223)
# Sequence of 5-hydroxytryptamine receptor 2A (P28223 whole entry): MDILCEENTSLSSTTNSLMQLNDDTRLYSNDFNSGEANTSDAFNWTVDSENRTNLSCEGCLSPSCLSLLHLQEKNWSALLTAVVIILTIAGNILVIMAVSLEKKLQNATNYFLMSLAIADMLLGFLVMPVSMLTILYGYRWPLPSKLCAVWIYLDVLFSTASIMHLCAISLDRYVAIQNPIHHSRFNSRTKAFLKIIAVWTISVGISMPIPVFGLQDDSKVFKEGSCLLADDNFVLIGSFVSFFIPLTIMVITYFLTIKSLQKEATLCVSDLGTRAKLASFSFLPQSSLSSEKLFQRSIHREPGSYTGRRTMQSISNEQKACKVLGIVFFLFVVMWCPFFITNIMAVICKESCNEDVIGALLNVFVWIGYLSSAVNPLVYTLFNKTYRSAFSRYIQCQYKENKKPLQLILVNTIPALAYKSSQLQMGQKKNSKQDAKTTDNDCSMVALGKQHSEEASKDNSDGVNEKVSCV
# Description: Binding affinity towards serotonin 5-hydroxytryptamine 2A receptor
SMILES,Ki [1] [nM],Ki [2] [nM]
COc1cc2c(cc1OC)C(=O)CC(CN1CCN(c3ccccn3)CC1)C2 (racemic),> 10000,661
O=C1CC(CN2CCN(c3ccccn3)CC2)Cc2ccccc21 (racemic),3310,977
COc1cc2c(cc1OC)C(=O)CC(CN1CCC(c3noc4cc(F)ccc34)CC1)C2 (racemic),,9.55
COc1ccc2c(c1)CC(CN1CCN(c3ccccc3OC)CC1)CC2=O (racemic),46.8,891
O=C1CC(CN2CCC(c3noc4cc(F)ccc34)CC2)Cc2ccccc21 (racemic),129,2.69
COc1cc2c(cc1OC)C(=O)CC(CN1CCN(c3ccccc3OC)CC1)C2 (racemic),> 10000,2340
O=C1CC(CN2CCC(C(=O)c3ccc(F)cc3)CC2)Cc2ccccc21 (racemic),501,13.2
COc1ccccc1N1CCN(CC2CC(=O)c3ccccc3C2)CC1 (racemic),,513
COc1ccc2c(c1)CC(CN1CCN(c3ccccn3)CC1)CC2=O (racemic),4570,692
COc1ccc2c(c1)CC(CN1CCC(c3noc4cc(F)ccc34)CC1)CC2=O (racemic),1620,
"COc1ccc2c(c1)CC(CN1CCC(c3noc4cc(F)ccc34)CC1)CC2=O (single isomer, unassigned; (+))",513,1.48
"COc1ccc2c(c1)CC(CN1CCC(c3noc4cc(F)ccc34)CC1)CC2=O (single isomer, unassigned; (-))",832,26.3
O=C1CC(CN2CCC(c3noc4cc(F)ccc34)CC2)Cc2ccccc21 (stereo in doubt; (+)-7d),661,29.5
O=C1CC(CN2CCC(c3noc4cc(F)ccc34)CC2)Cc2ccccc21 (stereo in doubt; (-)-7d),832,6.31
COc1cc2c(cc1OC)C(=O)CC(CN1CCC(c3noc4cc(F)ccc34)CC1)C2 (stereo in doubt; (-)-9d),,7.24

# Further lines, results first:
Ki [1] [nM],Ki [2] [nM],SMILES
1170,17.8,COc1ccc2c(c1)CC(CN1CCC(C(=O)c3ccc(F)cc3)CC1)CC2=O (racemic)
83.2,6.03,COc1cc2c(cc1OC)C(=O)CC(CN1CCC(C(=O)c3ccc(F)cc3)CC1)C2 (racemic)
1100,11.2,"COc1ccc2c(c1)CC(CN1CCC(C(=O)c3ccc(F)cc3)CC1)CC2=O (single isomer, unassigned; (+))"
575,43.7,"COc1cc2c(cc1OC)C(=O)CC(CN1CCC(C(=O)c3ccc(F)cc3)CC1)C2 (single isomer, unassigned; (+))"
977,16.2,"COc1ccc2c(c1)CC(CN1CCC(C(=O)c3ccc(F)cc3)CC1)CC2=O (single isomer, unassigned; (-))"
166,5.62,"COc1cc2c(cc1OC)C(=O)CC(CN1CCC(C(=O)c3ccc(F)cc3)CC1)C2 (single isomer, unassigned; (-))"
490,23.4,O=C1CC(CN2CCC(C(=O)c3ccc(F)cc3)CC2)Cc2ccccc21 (stereo in doubt; (+)-7c)
776,5.89,O=C1CC(CN2CCC(C(=O)c3ccc(F)cc3)CC2)Cc2ccccc21 (stereo in doubt; (-)-7c)
